Results published in patent US20060216253A1, “Whitening cosmetics containing morus alba extracts” (Time and Cross, Inc., priority 2005, published 2006).

How the values were obtained:
[1] = system: melan-a cell line; assay: Cell viability (MTT assay) of melan-a cell line; assay type: cell-based
Protocol: (§1) Melan-a cells were grown in 10 mL of RPMI 1640 medium supplemented with antibiotics, 10% fetal bovine serum (FBS), and 20 nM TPA. The cell suspension was inoculated in a 24-well plate (10^5 cells/mL) and the cells were allowed to completely adhere to the plate for 24 hr. Test samples dissolved in DMSO were added to the plate and incubated at 37° C. for 72 hr in a CO2 incubator. The culture medium was then thoroughly removed and the cells were isolated through trypsin treatment. The suspensions were then centrifuged for 5 min to collect cells, which were then treated with 5% trichloroacetic acid (TCA), stirred and centrifuged to precipitate the melanin. Melanin was washed with PBS and dissolved in 1 N NaOH. Absorbance at 475 nm was measured. Melanin concentration was determined from a standard concentration curve of synthetic melanin (SIGMA Co., USA).
(§2) We used the MTT assay to determine the percentage of viable cells. After cultivation was completed, a solution of MTT was added to the cultivation solution and the mixture was incubated at 37° C. for 4 hr. After incubation, culture medium was thoroughly removed, and the residue was treated with DMSO (Dimethyl sulfoxide) and shaken for 20 min. The optical density at 580 nm was measured by an ELISA microplate reader.

[2] = system: Mushroom Tyrosinase; assay: Extended duration of mushroom tyrosinase inhibition (up to 24 hours); assay type: biochemical; conditions: for reaction time until loss of tyrosinase inhibitory activity: 37° C., FIG. 3
Protocol: (§3) L-Tyrosine, the substrate for tyrosinase, was dissolved in 50 mM sodium phosphate buffer (pH6.8) to prepare a solution of 0.1 mg/mL L-tyrosine. […] 100 μL of the L-tyrosine solution was introduced into a test tube, and 100 μL of 50 mM sodium phosphate buffer (pH6.8) with or without test samples were added thereto, and then 10 μL of 200 U/mL tyrosinase were mixed and incubated at 37° C. for 15 min.
Using the experimental conditions described in the Mushroom Tyrosinase experiment described above, the reaction mixtures, containing various concentrations from 1 μg/mL to 50 μg/mL of the agents assayed, were incubated at 37° C. and spectrophotometric measurements of dopachrome were made at time intervals of up to 24 hours.

[3] = system: murine melanoma B16 cells; assay: Cell viability (MTT assay) of murine melanoma B-16 cells; assay type: cell-based
Protocol: (§4) The melanoma cell line was grown in DMEM culture medium containing 4.5 g of glucose/l, 10% fetal bovine serum and 1% antibiotic agent and cultivated at 37° C. under a condition of 5% CO2. The cell suspension was inoculated in a 50 mL T-flask (3×10^5 cells/mL) and the cells were allowed to completely adhere to the plate for 24 hr. Then, test samples diluted in DMEM medium at concentrations of 1, 5, 10, 50, and 100 μg/mL were added to the cultivated cells, and the mixture was cultivated at 5% CO2 and 37° C. for 3 days. After cultivation, culture medium was thoroughly removed and the cells were isolated via trypsin treatment. The suspensions were then centrifuged for 5 min to collect cells. The obtained cells were treated with 5% trichloroacetic acid (TCA), stirred and centrifuged. The precipitated melanin was washed with phosphate buffered saline (PBS), and treated with 1 N NaOH to dissolve the melanin therein. Absorbance at 475 nm was measured. Melanin concentration was determined from a standard concentration curve of synthetic melanin (SIGMA Co., USA).
as §2

[4] = system: melan-a cell line; assay: Melanin production in melan-a cell line; assay type: cell-based; conditions: melan-a cells; for Melanin production (%): 72 hr; for inhibitory effects on melanin production (in words): any of the concentrations assayed
Protocol: as §1

[5] = system: murine melanoma B16 cells; assay: Melanin production in murine melanoma B-16 cells; assay type: cell-based; conditions: for Melanin production (%): B16 cells, 3 days; for inhibitory effects on melanin production (in words): any of the concentrations assayed
Protocol: as §4

[6] = biological target: Mushroom Tyrosinase; assay: Inhibitory effects on mushroom tyrosinase (dopachrome, OD490, 15 min); assay type: biochemical; conditions: for IC50: 37° C., 15 min, L-tyrosine substrate
Protocol: as §3
The amount of dopachrome in the reaction mixture was determined spectrophotmetrically using absorbance measurement at 490 nm.

[7] = system: melanocytes; assay: Microscopic observation of pigmentation of confluent melanocyte monolayer; assay type: cell-based; conditions: cell line not specified
Text: The pigmentation of a confluent monolayer of melanocytes is visible microscopically, as the cells contain black melanin pigment.

SMILES: OC[C@H]1O[C@@H](Oc2ccc(O)cc2)[C@H](O)[C@@H](O)[C@@H]1O [Arbutin, arbutin]
- Cell viability (%) ([1]; melan-a cells, 1 μg/mL, MTT): 104.2 ± 7.2%
- Cell viability (%) ([1]; melan-a cells, 5 μg/mL, MTT): 105.2 ± 8.3%
- Cell viability (%) ([1]; melan-a cells, 10 μg/mL, MTT): 100.7 ± 5.0%
- Cell viability (%) ([1]; melan-a cells, 50 μg/mL, MTT): 98.3 ± 7.7%
- Cell viability (%) ([1]; melan-a cells, 100 μg/mL, MTT): 93.8 ± 5.6%
- reaction time until loss of tyrosinase inhibitory activity ([2]; 2 μg/mL): loses activity in about one hour
- reaction time until loss of tyrosinase inhibitory activity ([2]; 5 μg/mL): loses activity in about one hour
- Cell viability (%) ([3]; B16 cells, 1 μg/mL, MTT): 102.4 ± 5.3%
- Cell viability (%) ([3]; B16 cells, 5 μg/mL, MTT): 100.1 ± 7.8%
- Cell viability (%) ([3]; B16 cells, 10 μg/mL, MTT): 98.5 ± 6.3%
- Cell viability (%) ([3]; B16 cells, 50 μg/mL, MTT): 96.6 ± 8.0%
- Cell viability (%) ([3]; B16 cells, 100 μg/mL, MTT): 93.2 ± 5.6%
- Melanin production (%) ([4]; 1 μg/mL): 104.2 ± 3.2%
- Melanin production (%) ([4]; 5 μg/mL): 103.7 ± 4.6%
- Melanin production (%) ([4]; 10 μg/mL): 102.0 ± 5.7%
- Melanin production (%) ([4]; 50 μg/mL): 100.4 ± 4.0%
- Melanin production (%) ([4]; 100 μg/mL): 99.5 ± 7.2%
- inhibitory effects on melanin production (in words) [4]: did not show inhibitory effects on melanin production
- Melanin production (%) ([5]; 1 μg/mL): 99.4 ± 2.1%
- Melanin production (%) ([5]; 5 μg/mL): 100.8 ± 4.5%
- Melanin production (%) ([5]; 10 μg/mL): 103.2 ± 1.9%
- Melanin production (%) ([5]; 50 μg/mL): 98.9 ± 8.2%
- Melanin production (%) ([5]; 100 μg/mL): 98.2 ± 6.9%
- inhibitory effects on melanin production (in words) ([5]; melanoma B-16 cells): did not show inhibitory effects on melanin production
- IC50 [6]: 145000 nM

SMILES: O=c1cc(CO)occ1O [Kojic acid, kojic acid]
- Cell viability (%) ([1]; melan-a cells, 1 μg/mL, MTT): 95.3 ± 8.0%
- Cell viability (%) ([1]; melan-a cells, 5 μg/mL, MTT): 96.8 ± 4.7%
- Cell viability (%) ([1]; melan-a cells, 10 μg/mL, MTT): 95.1 ± 9.0%
- Cell viability (%) ([1]; melan-a cells, 50 μg/mL, MTT): 84.2 ± 8.2%
- Cell viability (%) ([1]; melan-a cells, 100 μg/mL, MTT): 80.5 ± 8.3%
- reaction time until loss of tyrosinase inhibitory activity ([2]; 2 μg/mL): loses activity within two hours
- reaction time until loss of tyrosinase inhibitory activity ([2]; 5 μg/mL): within five hours
- Cell viability (%) ([3]; B16 cells, 1 μg/mL, MTT): 95.2 ± 8.3%
- Cell viability (%) ([3]; B16 cells, 5 μg/mL, MTT): 97.2 ± 7.6%
- Cell viability (%) ([3]; B16 cells, 10 μg/mL, MTT): 96.2 ± 5.0%
- Cell viability (%) ([3]; B16 cells, 50 μg/mL, MTT): 86.7 ± 3.4%
- Cell viability (%) ([3]; B16 cells, 100 μg/mL, MTT): 81.7 ± 8.5%
- Melanin production (%) ([4]; 1 μg/mL): 103.4 ± 5.4%
- Melanin production (%) ([4]; 5 μg/mL): 100.5 ± 8.2%
- Melanin production (%) ([4]; 10 μg/mL): 99.4 ± 7.1%
- Melanin production (%) ([4]; 50 μg/mL): 95.1 ± 6.7%
- Melanin production (%) ([4]; 100 μg/mL): 92.4 ± 8.0%
- inhibitory effects on melanin production (in words) [4]: did not show inhibitory effects on melanin production
- Melanin production (%) ([5]; 1 μg/mL): 102.4 ± 4.7%
- Melanin production (%) ([5]; 5 μg/mL): 98.2 ± 7.1%
- Melanin production (%) ([5]; 10 μg/mL): 96.5 ± 3.7%
- Melanin production (%) ([5]; 50 μg/mL): 94.1 ± 5.2%
- Melanin production (%) ([5]; 100 μg/mL): 91.6 ± 7.1%
- inhibitory effects on melanin production (in words) ([5]; melanoma B-16 cells): did not show inhibitory effects on melanin production

SMILES: Oc1cc(O)cc(/C=C/c2ccc(O)cc2O)c1 [Oxyresveratrol, oxyresveratrol]
- Cell viability (%) ([1]; mouse, 72 h, 1 μg/mL): 99.0 ± 5.8%
- Cell viability (%) ([1]; mouse, 72 h, 5 μg/mL): 96.9 ± 7.9%
- Cell viability (%) ([1]; mouse, 72 h, 10 μg/mL): 94.7 ± 4.2%
- Cell viability (%) ([1]; mouse, 72 h, 50 μg/mL): 68.5 ± 5.5%
- Cell viability (%) ([1]; mouse, 72 h, 100 μg/mL): 27.3 ± 7.8%
- inhibition of tyrosinase activity after 24 hours ([2]; 24 hours incubation, even at the lower concentrations tested, FIG. 4): about 90%
- IC50 ([2]; read-out: IC50 for tyrosinase inhibition after 24 hours incubation, 24 hours incubation): 2600 nM
- Cell viability (%) ([3]; mouse, 3 days, 1 μg/mL): 99.5 ± 5.4%
- Cell viability (%) ([3]; mouse, 3 days, 5 μg/mL): 97.4 ± 5.9%
- Cell viability (%) ([3]; mouse, 3 days, 10 μg/mL): 95.3 ± 7.6%
- Cell viability (%) ([3]; mouse, 3 days, 50 μg/mL): 66.2 ± 8.3%
- Cell viability (%) ([3]; mouse, 3 days, 100 μg/mL): 23.1 ± 4.8%
- pigmentation of treated cells observed microscopically [7]: Reduced pigmentation
- Melanin production (%) ([4]; 1 μg/mL): 95.1 ± 3.1%
- Melanin production (%) ([4]; 5 μg/mL): 90.2 ± 6.4%
- Melanin production (%) ([4]; 10 μg/mL): 88.5 ± 7.4%
- Melanin production (%) ([4]; 50 μg/mL): 60.3 ± 9.1%
- reduction in melanin production ([4]; 100 μg/mL): 79.4%
- Melanin production (%) ([4]; 100 μg/mL): 20.6 ± 4.9%
- Melanin production (%) ([5]; 1 μg/mL): 94.3 ± 7.7%
- Melanin production (%) ([5]; 5 μg/mL): 90.8 ± 4.4%
- Melanin production (%) ([5]; 10 μg/mL): 87.5 ± 6.9%
- Melanin production (%) ([5]; 50 μg/mL): 57.3 ± 8.1%
- Melanin production (%) ([5]; 100 μg/mL): 19.5 ± 8.2%
- reduction in melanin production ([5]; melanoma B-16 cells, 100 μg/mL): 80.5%
- IC50 [6]: 2400 nM
- inhibitory effect on mushroom tyrosinase (in words) ([6]; FIGS. 1 and 2): the most potent inhibitors of mushroom tyrosinase
